# Laboratory results taken from US8940789B2, “Neurite elongation agent, memory-improving agent and anti-Alzheimer agent comprising 4′-demethylnobiletin or 4′-demethyltangeretin as active ingredient, and process for production of the compound” (Fuji Sangyo Co., Ltd., priority 2009, dated 2015).
# Experiments:
# [1] = test system: nitric oxide (NO), inducible nitric oxide synthase (iNOS), and cyclooxygenase-2 (COX-2); conditions: synthesized demethylated compounds compared with nobiletin per se; Non Patent Literature 3; cited from earlier work
# Neuro2a = assay: Neurite elongation activity in Neuro2a neurocytes; assay type: cell-based; conditions: 20 μM, observed under microscope two days after addition, compared with comparative controls nobiletin and tangeretin
# Method: The conversion compound 1, i.e., an isolated product of 4′-demethylnobiletin, and the conversion compound 2, i.e., an isolated product of 4′-demethyltangeretin, both obtained in Example 3 above were used to study neurite elongation activities. Neuro2a was used as a neurocyte.
# First, Neuro2a cells were cultured in DMEM medium containing 10% fetal bovine serum (FBS) in a 37° C. incubator with 5% CO2. The cells were subcultured every three days.
# Then, the cells were inoculated in a 24′-well cell culture plate at 2×10^4/well using DMEM medium containing 5% FBS. Three hours after subculture, various test samples were added each at a concentration of 20 μM. 4′-demethylnobiletin (the product in Example 3), 4′-demethyltangeretin (the product in Example 3), nobiletin (a comparative control), and tangeretin (a comparative control) dissolved in ethanol were used as the test samples. As a control, only ethanol was used.
# Then, two days after addition of the various test samples, neurite elongation activities were observed under microscope. FIG. 4 show picture images for comparing the neurite elongation activities exerted by the various test samples in cultures.
Structure (SMILES),"effect of preventing development of cancer by suppressing synthesis of NO, iNOS and COX-2 [1]",neurite elongation activity (Neuro2a)
COc1cc(-c2cc(=O)c3c(OC)c(OC)c(OC)c(OC)c3o2)ccc1O [4′-demethylnobiletin],drastically higher effect than nobiletin,significant neurite elongation activities
COc1c(OC)c(OC)c2c(=O)cc(-c3ccc(O)cc3)oc2c1OC [4′-demethyltangeretin],,significant neurite elongation activities
"COc1c(OC)c(OC)c2c(=O)cc(-c3ccc(O)c(O)c3)oc2c1OC [3′,4′-didemethylnobiletin]",drastically higher effect than nobiletin,
COc1ccc(-c2cc(=O)c3c(OC)c(OC)c(OC)c(OC)c3o2)cc1O [3′-demethylnobiletin],drastically higher effect than nobiletin,
